These results are taken from ChEMBL document CHEMBL1143254, “Structure-based design of novel 2-amino-6-phenyl-pyrimido[5',4':5,6]pyrimido[1,2-a]benzimidazol-5(6H)-ones as potent and orally active inhibitors of lymphocyte specific kinase (Lck): synthesis, SAR, and in vivo anti-inflammatory activity” (J Med Chem, 2008).

Data set [1] in a line: Solubility in simulated intestinal fluid at pH 6.8. The class given is physicochemical.
The target in data set [2] is Proto-oncogene tyrosine-protein kinase Src (Homo sapiens, UniProt P12931). The data set can be described thus: Inhibition of Src by HTRF assay.
Proto-oncogene tyrosine-protein kinase Src, sequence (P12931 2-536 limits assumed): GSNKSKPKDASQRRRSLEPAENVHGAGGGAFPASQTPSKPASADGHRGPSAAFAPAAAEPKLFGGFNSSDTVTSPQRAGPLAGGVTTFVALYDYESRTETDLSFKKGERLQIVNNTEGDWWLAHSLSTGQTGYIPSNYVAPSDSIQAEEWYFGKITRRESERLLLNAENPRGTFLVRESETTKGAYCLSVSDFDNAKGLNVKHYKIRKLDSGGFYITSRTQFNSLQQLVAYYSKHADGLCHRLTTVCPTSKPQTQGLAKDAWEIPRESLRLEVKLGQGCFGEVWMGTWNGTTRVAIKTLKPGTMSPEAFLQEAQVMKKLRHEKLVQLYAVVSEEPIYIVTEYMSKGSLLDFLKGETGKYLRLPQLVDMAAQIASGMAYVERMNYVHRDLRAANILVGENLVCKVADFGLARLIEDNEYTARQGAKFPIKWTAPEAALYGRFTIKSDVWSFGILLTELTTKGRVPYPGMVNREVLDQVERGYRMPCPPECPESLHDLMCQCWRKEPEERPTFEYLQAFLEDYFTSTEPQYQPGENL
The target in data set [3] is Vascular endothelial growth factor receptor 2 (Homo sapiens, UniProt P35968). Nature of the data set: Inhibition of KDR by HTRF assay. In general terms: TR-FRET usually uses a lanthanide donor and a delayed reading to cut background.
Vascular endothelial growth factor receptor 2, sequence (P35968 whole entry): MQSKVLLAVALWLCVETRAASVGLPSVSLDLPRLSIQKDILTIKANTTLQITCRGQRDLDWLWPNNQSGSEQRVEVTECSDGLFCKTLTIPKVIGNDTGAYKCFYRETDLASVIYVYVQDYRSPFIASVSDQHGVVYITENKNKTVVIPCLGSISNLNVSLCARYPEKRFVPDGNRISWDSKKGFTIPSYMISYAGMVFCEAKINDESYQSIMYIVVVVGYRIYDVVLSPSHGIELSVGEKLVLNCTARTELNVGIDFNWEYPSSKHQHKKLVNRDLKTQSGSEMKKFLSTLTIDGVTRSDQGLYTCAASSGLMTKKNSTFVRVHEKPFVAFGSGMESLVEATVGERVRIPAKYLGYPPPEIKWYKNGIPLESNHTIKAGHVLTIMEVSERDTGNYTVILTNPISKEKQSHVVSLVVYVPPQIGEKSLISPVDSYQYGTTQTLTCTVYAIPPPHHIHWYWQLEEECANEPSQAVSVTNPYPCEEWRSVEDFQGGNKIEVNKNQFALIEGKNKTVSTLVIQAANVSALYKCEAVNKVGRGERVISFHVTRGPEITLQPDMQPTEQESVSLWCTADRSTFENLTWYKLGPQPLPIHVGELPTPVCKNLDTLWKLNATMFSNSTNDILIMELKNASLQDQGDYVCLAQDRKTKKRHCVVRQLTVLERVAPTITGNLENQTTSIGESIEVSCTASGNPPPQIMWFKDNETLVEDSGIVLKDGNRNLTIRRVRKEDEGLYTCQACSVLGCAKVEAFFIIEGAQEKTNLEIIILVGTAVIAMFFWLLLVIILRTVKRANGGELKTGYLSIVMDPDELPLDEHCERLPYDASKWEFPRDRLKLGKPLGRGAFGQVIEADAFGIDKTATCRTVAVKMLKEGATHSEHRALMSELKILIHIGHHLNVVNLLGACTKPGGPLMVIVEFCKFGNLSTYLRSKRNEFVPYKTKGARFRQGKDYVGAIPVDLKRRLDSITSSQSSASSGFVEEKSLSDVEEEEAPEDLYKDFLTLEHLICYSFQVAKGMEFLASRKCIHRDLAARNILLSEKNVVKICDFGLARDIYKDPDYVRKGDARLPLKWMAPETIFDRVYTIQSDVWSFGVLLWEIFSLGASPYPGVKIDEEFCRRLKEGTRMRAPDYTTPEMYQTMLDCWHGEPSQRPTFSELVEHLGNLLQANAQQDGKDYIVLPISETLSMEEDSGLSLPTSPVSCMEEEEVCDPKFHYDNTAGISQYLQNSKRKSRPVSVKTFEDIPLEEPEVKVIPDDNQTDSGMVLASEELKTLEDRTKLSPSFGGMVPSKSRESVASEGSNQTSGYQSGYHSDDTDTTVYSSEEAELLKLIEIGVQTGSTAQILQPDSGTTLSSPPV
Data set [4] concerns the target Mitogen-activated protein kinase 14 (Homo sapiens, UniProt Q16539). Nature of the data set: Inhibition of p38-alpha by HTRF assay.
The next data set deals with Lymphocyte. Nature of the data set: Inhibition of T cell activation in human peripheral blood lymphocytes by mixed lymphocyte reaction. The class given is functional, cell-based.
For a further data set, the system named is T-cell. The data set can be described thus: Inhibition of anti-CD3/CD28-induced IL2 production in human T cells. In kind it is functional, cell-based.
The target in data set [5] is Tyrosine-protein kinase Lck (Homo sapiens, UniProt P06239).
Tyrosine-protein kinase Lck, sequence (P06239 whole entry): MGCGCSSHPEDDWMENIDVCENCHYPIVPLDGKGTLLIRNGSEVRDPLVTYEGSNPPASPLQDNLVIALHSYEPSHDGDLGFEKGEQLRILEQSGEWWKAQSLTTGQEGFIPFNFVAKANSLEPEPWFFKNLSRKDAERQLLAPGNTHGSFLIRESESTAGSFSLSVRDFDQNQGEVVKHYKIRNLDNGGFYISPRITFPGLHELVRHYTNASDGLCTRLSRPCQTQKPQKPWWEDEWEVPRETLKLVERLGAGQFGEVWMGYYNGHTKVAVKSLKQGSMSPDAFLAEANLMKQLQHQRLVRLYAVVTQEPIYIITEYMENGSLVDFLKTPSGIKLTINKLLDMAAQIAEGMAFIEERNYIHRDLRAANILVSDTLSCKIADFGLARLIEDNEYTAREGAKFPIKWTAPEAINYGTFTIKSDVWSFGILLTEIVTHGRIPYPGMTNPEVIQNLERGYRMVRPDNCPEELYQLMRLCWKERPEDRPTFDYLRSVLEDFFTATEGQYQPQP
Description: Inhibition of Lck by HTRF assay

pIC50: −log10 of the molar value. ≈ marks a conversion by molar mass, not a printed value.

Mitogen-activated protein kinase 14, sequence (Q16539 whole entry): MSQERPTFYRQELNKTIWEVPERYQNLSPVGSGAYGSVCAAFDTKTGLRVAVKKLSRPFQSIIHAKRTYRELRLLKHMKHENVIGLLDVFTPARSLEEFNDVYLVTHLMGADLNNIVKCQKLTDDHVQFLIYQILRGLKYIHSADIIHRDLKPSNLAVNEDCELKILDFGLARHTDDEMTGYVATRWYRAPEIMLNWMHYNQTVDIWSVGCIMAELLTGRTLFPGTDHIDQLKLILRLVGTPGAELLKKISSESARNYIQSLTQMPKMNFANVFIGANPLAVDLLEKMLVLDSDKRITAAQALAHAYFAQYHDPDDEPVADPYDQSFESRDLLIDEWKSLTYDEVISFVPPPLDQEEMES

What is called solubility is the concentration that dissolves in the medium under given conditions. Read a high solubility as a readily soluble substance. The term pIC50 denotes the IC50 on a negative log10 scale, so that one unit is a factor of ten. In data set [1], `Cc1cccc(C)c1-n1c(=O)c2cnc(Nc3ccc(OCCCN(C)C)cc3)nc2n2c3ccccc3nc12` came in with a solubility of 155 µg/mL (≈ 290 µM). The negative logarithm of the IC50 (pIC50) was 6.44 in data set [2]; 5.38 in data set [3]; < 5.00 in data set [4]; 7.00 in the data set on Lymphocyte; 5.96 with T-cell.
Regarding `COc1ccc(Cl)cc1-n1c(=O)c2cnc(Nc3ccc(N4CCN(C)CC4)cc3)nc2n2c3ccccc3nc12`, the negative logarithm of the IC50 (pIC50) was 5.85 in data set [2], 7.64 in data set [5], < 4.60 in data set [3] and 6.00 with Lymphocyte.
Regarding `Cc1cccc(C)c1-n1c(=O)c2cnc(Nc3ccc(OCCN4CCN(C)CC4)c(F)c3)nc2n2c3ccccc3nc12`, the pIC50 in data set [2] is 6.80; in data set [5], 7.64; in data set [3], 5.13; in data set [4] it was < 5.00; in the data set on Lymphocyte, 6.29; in the data set with T-cell, 5.57.
With `CN1CCN(c2ccc(Nc3ncc4c(=O)n(-c5c(Cl)cccc5Cl)c5nc6ccccc6n5c4n3)cc2)CC1`, the negative-log IC50 (pIC50) in data set [2] is 7.31; in data set [5], 8.00; in data set [3] it was 6.28; with Lymphocyte it was 5.96.
For the molecule `CN1CCN(c2ccc(Nc3ncc4c(=O)n(-c5c(Cl)cc(Cl)cc5Cl)c5nc6ccccc6n5c4n3)cc2)CC1`, the pIC50 in data set [2] is 7.46; in data set [5] it was 8.10; in data set [3] it was 6.32; in data set [4] it was < 5.00; in the data set with Lymphocyte it was 6.85.
In the case of `COc1cc(Nc2ncc3c(=O)n(-c4c(C)cccc4C)c4nc5ccccc5n4c3n2)ccc1N1CCN(C)CC1`, the solubility in data set [1] was > 200 µg/mL. The pIC50 in data set [2] is 7.00; in data set [5] it was 8.30; in data set [3], 5.44; in data set [4] it was 5.12; in the data set on Lymphocyte, 7.29; with T-cell, 6.37.
With `COc1cc(Nc2ncc3c(=O)n(-c4c(C)cccc4C)c4nc5ccccc5n4c3n2)cc(OC)c1OCCN1CCN(C)CC1`, in data set [1], the solubility was > 200 µg/mL. Besides, the negative-log IC50 (pIC50) in data set [2] is 7.11; in data set [5], 8.22; in data set [3] it was 5.48; in data set [4], < 5.00; with Lymphocyte, 6.54; with T-cell, 6.21.
As for `COc1cc(Nc2ncnc(-n3c(Nc4c(C)cccc4C)nc4ccccc43)n2)cc(OC)c1OC`, the negative-log IC50 (pIC50) in data set [5] is 9.00; in data set [3], 8.40; in data set [4], 7.11.
Molecule `Cc1cccc(C)c1-n1c(=O)c2cnc(Nc3ccc(OCCCN4CCCCC4)cc3)nc2n2c3ccccc3nc12` yielded a solubility in data set [1] of 101 µg/mL (≈ 176 µM). Besides, the pIC50 was 6.80 in data set [2]; 7.92 in data set [5]; 5.29 in data set [3]; 5.37 in data set [4]; 6.43 in the data set on Lymphocyte; 5.44 in the data set on T-cell.
On to `Cc1ccc(-n2c(=O)c3cnc(Nc4ccc(N5CCN(C)CC5)cc4)nc3n3c4ccccc4nc23)cc1`, for which the values for the negative logarithm of the IC50 (pIC50) in data set [2], in data set [5] and in data set [3] were 5.77, 6.46 and < 4.60, respectively.
On to `Cc1cccc(-n2c(=O)c3cnc(Nc4ccc(N5CCN(C)CC5)cc4)nc3n3c4ccccc4nc23)c1`, for which the negative logarithm of the IC50 (pIC50) in data set [2] is 6.00; in data set [5], 7.02; in data set [3], < 4.60.
The molecule `COc1cc(Nc2ncc3c(=O)n(-c4c(C)cccc4C)c4nc5ccccc5n4c3n2)cc(OC)c1OCCN1CCOCC1` returned a solubility in data set [1] of 18 µg/mL (≈ 29 µM). Besides, the pIC50 in data set [2] is 7.36; in data set [5], 8.00; in data set [3], 5.77; in data set [4], < 5.00; in the data set with Lymphocyte it was 6.74; in the data set on T-cell it was 6.44.
Take `COc1cccc(-n2c(=O)c3cnc(Nc4ccc(N5CCN(C)CC5)cc4)nc3n3c4ccccc4nc23)c1`: the negative logarithm of the IC50 (pIC50) in data set [2] was 5.72; in data set [5] it was 6.72; in data set [3] it was 5.08.
With `COc1cc(Nc2ncc3c(=O)n(-c4c(C)cccc4C)c4nc5ccccc5n4c3n2)ccc1OCCCN1CCN(C)CC1`, in data set [1], the solubility is > 200 µg/mL. The pIC50 in data set [2] was 6.74; in data set [5], 7.92; in data set [3], 5.30; in data set [4], < 5.00; in the data set with Lymphocyte, 6.85; with T-cell it was 5.82.
Regarding `Cc1cccc(C)c1-n1c(=O)c2cnc(Nc3ccc(OCCN(C)C)cc3)nc2n2c3ccccc3nc12`, the pIC50 was 6.36 in data set [2]; 7.55 in data set [5]; 5.18 in data set [3]; < 5.00 in data set [4]; 7.08 in the data set on Lymphocyte.
For `COc1cc(Nc2ncc3c(=O)n(-c4c(C)cccc4C)c4nc5ccccc5n4c3n2)cc(OC)c1OCCCN1CCN(C)CC1`, the negative logarithm of the IC50 (pIC50) in data set [2] is 7.15; in data set [5], 8.22; in data set [3], 5.40; in data set [4], < 5.00; in the data set with Lymphocyte, 7.10; with T-cell it was 6.72.
Turning to `COc1cc(Nc2ncnc(-n3c(Nc4ccccc4)nc4ccccc43)n2)cc(OC)c1OC`, in data set [4], the negative logarithm of the IC50 (pIC50) is 6.33.
On to `COc1cc(Nc2ncc3c(=O)n(-c4c(C)cccc4C)c4nc5ccccc5n4c3n2)cc(OC)c1OC`, for which the concentration in solution in data set [1] (solubility) was 15 µg/mL (≈ 28.7 µM). Also, the pIC50 is 6.68 in data set [2]; 7.57 in data set [5]; 5.72 in data set [3]; < 5.00 in data set [4]; 6.33 with Lymphocyte; 6.01 in the data set on T-cell.
Regarding `COc1cc(Nc2ncc3c(=O)n(-c4c(C)cccc4C)c4nc5ccccc5n4c3n2)ccc1OCCN1CCN(C)CC1`, the pIC50 in data set [2] was 6.62; in data set [5] it was 7.72; in data set [3], 5.26; in data set [4], < 5.00; in the data set with Lymphocyte, 6.82; with T-cell it was 4.80.
Take `CCCCOc1ccc(-n2c(=O)c3cnc(Nc4ccc(N5CCN(C)CC5)cc4)nc3n3c4ccccc4nc23)cc1`: the pIC50 in data set [2] was 5.08; in data set [5], 5.34; in data set [3], < 4.60.
